From the supplement of paper PMC10307832

Key:
Assay in all cases: relative viability (nuclei count vs DMSO), 5 days (fraction); higher = more cells survive
[1] = compound: C1CNCCC1C2=CC(=NN2)C3=CC=NC=C3 + NC(=O)Nc1cc(-c2cccc(F)c2)sc1C(=O)N[C@H]1CCCNC1 [AZD7762] (partner 0.2 µM)
Summary of the method: (§1)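 A single step with final 0.05% Triton X-100, 1% formaldehyde and 1 ug/ml Hoechst fixed the cells and stained nuclei 5 days after treatment. Lung cancer cell lines in 1536-well plates had been treated by pin tool the day after seeding with one drug alone or a fixed anchor-drug dose plus five library-drug doses (not always all listed) in √10 steps, and nuclei were counted on 4× images. Relative viability is the ratio of nuclei in treated wells to nuclei in vehicle wells, taken as the median of duplicate plates.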

[2] = compound: C[C@@H](N)c1ccc(C(=O)Nc2ccnc3[nH]ccc23)cc1 + CC(=O)c1c(C)c2cnc(Nc3ccc(N4CCNCC4)cn3)nc2n(C2CCCC2)c1=O [Palbociclib] (partner 0.5 µM)
Summary of the method: as §1

[3] = compound: O[C@H]1CC[C@H](Nc2ncc3nc(Nc4c(F)cc(F)cc4F)n([C@H]4CCOC4)c3n2)CC1 [Tanzisertib] + CC(=O)c1c(C)c2cnc(Nc3ccc(N4CCNCC4)cn3)nc2n(C2CCCC2)c1=O [Palbociclib] (partner 0.5 µM)
Summary of the method: as §1

[4] = compound: C1CNCCC1C2=CC(=NN2)C3=CC=NC=C3 + CC1(C)CCC(c2ccc(Cl)cc2)=C(CN2CCN(c3ccc(C(=O)NS(=O)(=O)c4ccc(N[C@H](CCN5CCOCC5)CSc5ccccc5)c(S(=O)(=O)C(F)(F)F)c4)cc3)CC2)C1 [Navitoclax] (partner 0.5 µM)
Summary of the method: as §1

Row | Cell Line | relative viability ([1]; first compound 0.08 µM) | relative viability ([1]; first compound 0.8 µM) | relative viability ([1]; first compound 2.53 µM) | relative viability ([1]; first compound 8 µM) | relative viability ([2]; first compound 0.1265 µM) | relative viability ([2]; first compound 0.4 µM) | relative viability ([2]; first compound 4 µM) | relative viability ([3]; first compound 0.08 µM) | relative viability ([3]; first compound 0.253 µM) | relative viability ([3]; first compound 0.8 µM) | relative viability ([3]; first compound 2.53 µM) | relative viability ([3]; first compound 8 µM) | relative viability ([2]; first compound 0.04 µM) | relative viability ([2]; first compound 1.265 µM) | relative viability ([4]; first compound 0.08 µM) | relative viability ([4]; first compound 0.8 µM) | relative viability ([4]; first compound 2.53 µM) | relative viability ([4]; first compound 8 µM)
1 | NCI-H650 | 0.853 | 1.07 | 1.09 | 0.949 | 0.341 | 0.311 | 0.327 | 0.341 | 0.342 | 0.302 | 0.33 | 0.325 |  |  |  |  |  | 
2 | NCI-H358 | 0.487 | 0.626 | 0.553 | 0.54 | 0.134 | 0.141 | 0.145 | 0.129 | 0.134 | 0.127 | 0.127 | 0.148 | 0.145 | 0.133 |  |  |  | 
3 | SW 1573 |  |  |  |  | 0.416 | 0.385 | 0.341 | 0.444 | 0.455 | 0.333 | 0.456 | 0.316 | 0.491 | 0.356 | 0.778 | 1.2 | 1.19 | 1.09
4 | SK-MES-1 |  |  |  |  | 0.365 | 0.306 | 0.271 | 0.327 | 0.314 | 0.345 | 0.298 | 0.281 | 0.312 | 0.337 | 1.26 | 1.36 | 1.37 | 1.2
5 | NCI-H1648 | 0.632 | 0.716 |  | 0.78 | 0.34 | 0.279 | 0.414 | 0.228 | 0.267 | 0.212 | 0.229 | 0.251 | 0.267 | 0.371 |  |  |  | 
6 | NCI-H2023 |  |  |  |  | 0.409 | 0.424 | 0.35 | 0.335 | 0.406 | 0.406 | 0.325 | 0.328 | 0.371 |  | 0.909 | 1.05 | 1.06 | 0.979
7 | EBC-1 |  |  |  |  |  |  |  |  |  |  |  |  |  |  | 0.463 | 0.517 | 0.5 | 0.392
8 | NCI-H2009 |  |  |  |  | 0.2 | 0.213 | 0.154 | 0.201 | 0.209 | 0.263 | 0.278 | 0.187 | 0.194 | 0.153 | 1.16 | 1.18 | 1.17 | 1.14
9 | NCI-H2228 |  |  |  |  | 0.806 | 0.909 | 0.839 | 1.12 | 0.818 | 0.684 | 0.741 | 0.655 | 0.808 | 0.352 | 0.82 | 1.31 | 0.647 | 0.951
10 | IA-LM |  |  |  |  |  |  |  |  |  |  |  |  |  |  | 0.919 | 0.749 | 0.687 | 0.611
11 | ABC-1 | 0.851 | 0.519 | 0.915 | 1.02 | 0.775 | 0.789 | 0.552 | 0.927 | 0.597 | 0.946 | 0.818 | 0.824 | 0.662 | 0.976 |  |  |  | 
12 | NCI-H520 |  |  |  |  | 0.231 | 0.263 | 0.225 | 0.274 | 0.201 | 0.227 | 0.227 | 0.239 | 0.218 | 0.254 | 1.06 | 1.01 | 1.06 | 1.28
13 | NCI-H1703 |  | 0.104 |  | 0.133 |  |  |  |  |  |  |  |  |  |  | 1.08 | 1.59 | 1.15 | 1.35
